Measurements from ChEMBL document CHEMBL3217457, “Carbazolepyrrolo[2,1-c][1,4]benzodiazepine conjugates: design, synthesis, and biological evaluation” (Medchemcomm, 2011).

Assays:
A549 = test: Growth inhibition of human A549 cells; format: functional
Calf thymus DNA = test: Binding affinity to calf thymus DNA assessed as change in melting temperature at compound to DNA ratio of 1:5 after 18 hrs by thermal denaturation analysis; format: nucleic-acid assay; details: Bos taurus
COLO 205 = test: Growth inhibition of human COLO205 cells; format: functional
SiHa = test: Growth inhibition of human SiHa cells; format: functional
A2780 = test: Growth inhibition of human A2780 cells; format: functional
MCF7 = test: Growth inhibition of human MCF7 cells; format: functional
ZR-75-1 = test: Growth inhibition of human ZR-75-1 cells; format: functional
[1] = Growth inhibition of human Gurav cells; format: functional
KB = test: Growth inhibition of human KB cells; format: functional
HOP-62 = test: Growth inhibition of human HOP62 cells; format: functional
PC-3 = test: Growth inhibition of human PC3 cells; format: functional

GI50 (A549) [nM] | ΔTm (Calf thymus DNA) [°C] | GI50 (COLO 205) [nM] | GI50 (A2780) [nM] | GI50 (MCF7) [nM] | GI50 (KB) [nM] | GI50 (PC-3) [nM] | Structure (SMILES) | GI50 (SiHa) [nM] | GI50 (ZR-75-1) [nM] | GI50 [1] [nM] | GI50 (HOP-62) [nM]
1500 | 4.7 | 1620 | 1700 | 1650 | 1950 | – | COc1cc2c(cc1OCCCCCCn1c3ccccc3c3ccccc31)N=C[C@@H]1CCCN1C2=O | 1580 | 2140 | 1710 | 1580
130 | 8.4 | 160 | 160 | 120 | 150 | 100 | COc1cc2c(cc1OCCCCN1CCN(CCCCn3c4ccccc4c4ccccc43)CC1)N=C[C@@H]1CCCN1C2=O | 150 | 150 | 170 | 80
130 | 7.2 | 80 | 10 | 40 | 110 | 120 | COc1ccc(-c2ccc3c(c2)c2cc(-c4ccc(OC)cc4)ccc2n3CCCN2CCN(CCCOc3cc4c(cc3OC)C(=O)N3CCC[C@H]3C=N4)CC2)cc1 | 120 | 130 | 120 | 100
